Test results reported in publication PMC3433414, “Oral Administration of the Pimelic Diphenylamide HDAC Inhibitor HDACi 4b Is Unsuitable for Chronic Inhibition of HDAC Activity in the CNS In Vivo” (PLoS ONE, 2012).

Key:
[1] = test system: M (non‐selective); assay: Cerep binding, antagonist radioligand; settings: 10 μM
Source text: In addition to the HDAC profiling performed, we also queried 4b for any apparent potential off-target effects, which could complicate any finding of efficacy or adverse events in vivo due to ‘polypharmacy’. This was accomplished by screening against a ‘diversity panel’ of 72 binding and 29 enzyme assays, comprised of roughly equal numbers of selective central and peripheral therapeutically relevant targets (Cerep Diversity Profile). This panel included representative targets from diverse enzyme families, G protein coupled receptors, steroid nuclear receptors, voltage- and ligand-gated ion channels. While not totally inclusive, it is a useful tool for discovery compounds to assess their viability as proof of concept molecules to specifically query a particular target. 4b was initially screened at 10 µM in duplicate. The full set of results is provided as Table S1. […] This clean in vitro profile was considered acceptable to proceed to ADME and pharmacokinetic studies.

[2] = Partition into erythrocytes; format: in vitro ADME; settings: mouse
[3] = target: T1, human recombinant HDAC8 (Homo sapiens, UniProt Q9BY41); assay: Two-step fluorogenic deacetylase assay, recombinant HDAC8; format: biochemical; settings: up to 50 µM
T1 construct: purified recombinant human full length HDAC1 (cat# 50051), HDAC2 (cat# 50052), HDAC3-NcoR2 (cat# 50003) and HDAC8 (cat# 50008); purchased BPS Bioscience (San Diego, CA) 50008
T1 sequence (Q9BY41 whole entry): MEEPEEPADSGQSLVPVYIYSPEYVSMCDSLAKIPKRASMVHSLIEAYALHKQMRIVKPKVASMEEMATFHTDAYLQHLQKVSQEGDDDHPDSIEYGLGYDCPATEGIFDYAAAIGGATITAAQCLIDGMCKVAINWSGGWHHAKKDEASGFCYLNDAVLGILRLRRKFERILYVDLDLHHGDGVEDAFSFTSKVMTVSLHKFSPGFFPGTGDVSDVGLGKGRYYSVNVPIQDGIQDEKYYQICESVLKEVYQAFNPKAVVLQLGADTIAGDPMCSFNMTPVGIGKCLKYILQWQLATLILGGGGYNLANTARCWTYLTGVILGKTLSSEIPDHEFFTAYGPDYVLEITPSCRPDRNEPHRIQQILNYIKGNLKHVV
Source text: (§1) To assess the biochemical and cellular potency of 4b and its conversion products/metabolites, we utilized the two-step fluorogenic assay which measures the HDAC-mediated catalytic conversion of synthetic acetylated lysine substrates. In brief, on deacetylation of the substrates by HDAC activity, a protease site is unmasked which allows subsequent trypsin-mediated cleavage and release of the highly flourescent AMC molecules in a subsequent step of the assay. The substrates used were Lys_Ac_AMC (Bachem I-1875) for HDAC3 and (Ac)Arg-Gly-Lys(Ac) (Bachem I-1925) for HDAC1 and HDAC2. […] However, the relatively labile and sterically more demanding trifluoracetyl group is readily hydrolyzed by the catalytically less avid Class IIa enzymes, allowing measurement of Class IIa activity using the 2-step fluorogenic assay. […]
(§2) For evaluation of the class selectivity of the compounds, we assessed inhibition against purified recombinant human full length HDAC1 (cat# 50051), HDAC2 (cat# 50052), HDAC3-NcoR2 (cat# 50003) and HDAC8 (cat# 50008): as representative of Class I activity; catalytic domain HDAC4(αα 648–1057), HDAC5 (αα 657–1123; cat # 50005), HDAC7 (αα 518-end; cat # 50007) and HDAC9 (αα 604–1066; cat # 50009) activity: representing all Class IIa activity; and full length HDAC6 (cat#50006): representing Class IIb activity. […]

[4] = test system: Class IIa/HDAC8 HDACs; assay: Cellular HDAC assay, Boc_Lys_TFA substrate, Jurkat E6.1 cells; format: cell-based; settings: up to 50 µM
Method: Briefly, Jurkat E6.1 cells (obtained from the European Collection of Cell Cultures (ECACC)) were plated into 384 well plates at 75,000 cells/well in cellular assay buffer (RPMI without phenol red, 0.1% Fetal Bovine Serum, 10 mM HEPES, 1 mM Sodium Pyruvate). Compounds of interest were diluted in assay buffer (16-point concentration curve, 1% final DMSO) and were added to wells - unless stated otherwise in the results section - for a 2 h preincubation at 37°C prior to the addition of either 100 µM Boc_Lys_TFA or Boc_Lys_Ac. Cells were incubated for a further 3 h at 37°C, followed by the addition of a trypsin (1 mg/ml) and reference compound (Compound 26 or TSA) stop-step overnight to terminate the reaction and lyse the cells. Fluorescent counts were read the following morning on the Perkin Elmer EnVision. Z’ was 0.8 for both assays, with S:B of 19 for Boc_Lys_Ac assay, and 7 for Boc_Lys_TFA assay.
Each compound was tested in duplicate in concentration-response format on 3 separate days. For both biochemical and cellular assays, data is presented as % inhibition from maximal activity (maximal fluorescence response), which was defined as the fluorescence read in the presence of 1% DMSO, with 100% inhibition defined as the fluorescence read in the presence of substantial excess of the respective reference compounds (5 µM TSA, 50 µM Compound 26 depending on target). […]

[5] = test system: HDACs; assay: Biochemical HDAC assays (whole panel); design: species or system human; settings: up to 50 µM
Source text: as §1, §2

Row | SMILES | % inhibition of control specific binding [1] [%] | concentrations in whole blood relative to plasma [2] | blood plasma ratio ([2]; whole blood, data not shown) | activity against HDAC8 [3] | cellular inhibition, Class IIa/HDAC8 substrate [4] | activity in the biochemical HDAC assays [5]
1 | Nc1ccccc1NC(=O)CCCCCC(=O)Nc1ccccc1 [Compound 4b] | 13 | approximately 4 times | ~3 | No activity | no inhibition | –
2 | O=C(CCCCCc1nc2ccccc2[nH]1)Nc1ccccc1 [Compound C1, 6-(1-H-benzo[d]imidazol-2-yl)-N-phenylhexanamide] | – | – | – | – | – | no activity
